In this assay the target is h-cGAS (Homo sapiens, UniProt Q8N884). The experiment in a line: cGAS Kinase-Glo inhibition biochemical assay. For orientation: In Kinase-Glo more light means more ATP remaining.

Where only a bound is given, the exact number is not on record here.

h-cGAS, sequence (Q8N884 whole entry): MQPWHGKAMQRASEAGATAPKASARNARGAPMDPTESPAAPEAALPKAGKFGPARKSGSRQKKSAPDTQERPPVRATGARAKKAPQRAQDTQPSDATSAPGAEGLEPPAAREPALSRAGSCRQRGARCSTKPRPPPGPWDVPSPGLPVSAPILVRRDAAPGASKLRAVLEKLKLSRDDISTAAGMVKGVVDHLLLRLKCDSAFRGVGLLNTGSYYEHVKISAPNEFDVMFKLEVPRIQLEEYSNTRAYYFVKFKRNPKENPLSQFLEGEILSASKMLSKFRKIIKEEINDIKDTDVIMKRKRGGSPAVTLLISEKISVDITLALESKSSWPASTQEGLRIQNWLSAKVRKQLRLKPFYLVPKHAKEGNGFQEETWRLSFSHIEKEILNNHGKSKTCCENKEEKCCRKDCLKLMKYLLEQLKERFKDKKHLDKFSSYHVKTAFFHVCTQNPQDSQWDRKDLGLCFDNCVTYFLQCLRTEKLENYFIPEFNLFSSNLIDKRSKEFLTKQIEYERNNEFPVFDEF

By IC50 is commonly meant the concentration that inhibits the measured activity by half. Consider `COCC(=O)N1CCc2[nH]c3c(Cl)c(Cl)ccc3c2C1(C)C` [Compound 3, 1-(6,7-dichloro-1,1-dimethyl-1,3,4,5-tetrahydro-2H-pyrido[4,3-b]indol-2-yl)-2-methoxyethan-1-one], for which the IC50 was greater than 10 µM.

For the origin of these results see publication PMC11929900 (Communications Chemistry, 2025).
